How the values were obtained:
[1] = molecular target: K-RasG12V/PDE6D interaction (Homo sapiens, UniProt O43924); assay: PDE6D/K-Ras interaction by FLIM-FRET in HEK cells; type: cell-based; settings: 5 μM, 24 h
Hs 578T cells = assay: Mammosphere formation assay; type: cell-based; settings: 6 days suspension then 72 h with 5 μM
MDA-MB-231 cells = assay: Mammosphere formation assay; type: cell-based; settings: MDA-MB-231, 6 days suspension then 72 h with 5 μM
PDE6D/avi-K-RasFMe = PDE6D/avi-K-RasFMe (Homo sapiens, UniProt O43924); assay: SPR inhibition of PDE6D binding to captured avi-K-RasFMe
Chain of PDE6D/avi-K-RasFMe (O43924 whole entry): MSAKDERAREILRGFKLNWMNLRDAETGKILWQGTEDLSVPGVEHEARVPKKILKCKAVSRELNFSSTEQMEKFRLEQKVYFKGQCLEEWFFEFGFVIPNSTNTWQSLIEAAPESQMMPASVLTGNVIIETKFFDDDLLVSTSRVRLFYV

H-RasG12V = assay: H-Ras nanoclustering-FRET; type: cell-based; settings: HEK cells, 5 μM (FTI-277 0.2 μM), 24 h
K-RasG12V = assay: K-Ras nanoclustering-FRET; type: cell-based; settings: HEK cells, 24 h; for dose-dependent effect on K-RasG12V nanoclustering-FRET: various concentrations, compared with 24 and 25
NCI-H358 cells = assay: Tumorosphere viability, drug sensitivity score; type: cell-based; settings: NCI-H358 tumorospheres, 72 h, 0 to 20 μM
A375 cells = assay: Tumorosphere viability, drug sensitivity score; type: cell-based; settings: B-RafV600E mutant A375 spheroids, 72 h, 0 to 20 μM

Chain of K-RasG12V/PDE6D interaction (O43924 whole entry): as above

IC50 (PDE6D/avi-K-RasFMe) [µM]	Kd (PDE6D/avi-K-RasFMe) [µM]	SMILES	effect on K-RasG12V/PDE6D FLIM-FRET [1]	effect on mammosphere formation (SFE) (Hs 578T cells)	effect on H-RasG12V nanoclustering-FRET (H-RasG12V)	activity on spheroid viability (DSS) (A375 cells)	other results
		COC(=O)c1ccc(C(=O)NCCCCOP(=O)(OC)OCC(C)(C)C(=O)CSC(C)=O)cc1N (stereo not drawn) [compound 25]	performed better than 24	inactive			effect on mammosphere formation (SFE) (MDA-MB-231 cells): inactive
		c1ccc(Cn2c(-c3ccc(OC[C@H](C4CCNCC4)n4c(-c5ccccc5)nc5ccccc54)cc3)nc3ccccc32)cc1 [Deltarasin, reference compound]			reduced FRET of both Ras isoforms about equally	equally high activity in both cell lines	effect on K-RasG12V nanoclustering-FRET (K-RasG12V; 5 μM (FTI-277 0.2 μM)): reduced FRET of both Ras isoforms about equally; IC50 (K-RasG12V; read-out: IC50 K-Ras nanoclustering-FRET (mean ± SEM), n = 3): 0.7 ± 0.4 µM; activity on spheroid viability (DSS) (NCI-H358 cells): equally high activity in both cell lines
10.27 ± 0.03	7.62 ± 0.02	CCOC(=O)C(C)(COP(=O)(OC)OCCCCCCNC(=O)c1ccc(C(=O)OC)c(N)c1)C(=O)CSC(C)=O (stereo not drawn) [compound 22]			No effect		dose-dependent effect on K-RasG12V nanoclustering-FRET (K-RasG12V): significant dose-dependent reduction; fold lower affinity than analogue 23 (PDE6D/avi-K-RasFMe; SPR): 2.6 fold
18.9 ± 0.2	14.1 ± 0.2	O=C(NCCCCCCO)c1cc2ccccc2oc1=O [compound 14]	did not block the interaction				
		C=CC(=O)N1CCN(c2ncnc3c(F)c(-c4c(O)cccc4F)c(Cl)cc23)CC1 [ARS-1620]				inactive	
		COC(=O)c1ccc(C(=O)NCCCCCCOP(=O)(OC)OCC(C)(C)C(=O)CSC(C)=O)cc1N (stereo not drawn) [compound 23]	performed as well as 15 and somewhat better than 22	but not H-RasG12V-mutant Hs 578T-mammosphere formation	No effect	inactive	dose-dependent effect on K-RasG12V nanoclustering-FRET (K-RasG12V): significant dose-dependent reduction

SMILES	IC50 (PDE6D/avi-K-RasFMe) [µM]	Kd (PDE6D/avi-K-RasFMe) [µM]	effect on K-RasG12V/PDE6D FLIM-FRET [1]	effect on mammosphere formation (SFE) (Hs 578T cells)	effect on H-RasG12V nanoclustering-FRET (H-RasG12V)	activity on spheroid viability (DSS) (A375 cells)	other results
CCOC(=O)C(C)(COP(=O)(OC)OCC1CCC(CNC(=O)c2cc3ccccc3oc2=O)CC1)C(=O)CSC(C)=O (stereo not drawn) [compound 17]	6.7 ± 0.1	4.97 ± 0.07	lacked in cellulo activity	no significant effect			effect on mammosphere formation (SFE) (MDA-MB-231 cells): no significant effect

From article PMC6964506 (ACS Omega, 2019)
